In patent US7615643B2 (SmithKline Beecham Corporation, priority 2006, dated 2009):
Structures can show the parent of a compound that is named as a salt.

Target: T1, PLK1 (Homo sapiens, UniProt P53350)
T1 construct: PLK kinase domain (amino acids 21-346 preceded by MKKGHHHHHHD); made in house; host or cells: baculovirus infected T. ni cells
Experiment: Assay for inhibition of PLK1 (SPA kinase assay)
Format: biochemical
Details: 1 μM ATP, 2 nM PLK1 kinase domain, read-out: PLK1 pIC50 (converted)
Description: I. Assay for Inhibition of PLK1
A. Preparation of 6× N-terminal His-tagged PLK Kinase Domain
6× N-terminal His-tagged PLK kinase domain (amino acids 21-346 preceded by MKKGHHHHHHD) SEQ ID: No. 1. was prepared from baculovirus infected T. ni cells under polyhedrin promoter control. All procedures were performed at 4° C. Cells were lysed In 50 mM HEPES, 200 mM NaCl, 50 mM imidazole, 5% glycerol; pH 7.5. The homogenate was centrifuged at 14K rpm in a SLA-1500 rotor for 1 hr and the supernatant filtered through a 1.2 micron filter. The supernatant was loaded onto a Nickel chelating Sepharose (Amersham Pharmacia) column and washed with lysis buffer. Protein was eluted using 20%, 30% and 100% buffer B steps where buffer B was 50 mM HEPES, 200 mM NaCl, 300 mM imidazole, 5% glycerol; pH 7.5. Fractions containing PLK were determined by SDS-PAGE. Fractions containing PLK were diluted five-fold with 50 mM HEPES, 1 mM DTT, 5% glycerol; pH 7.5, then loaded on an SP Sepharose (Amersham Pharmacia) column. After washing the column with 50 mM HEPES, 1 mM DTT, 5% glycerol; pH 7.5, PLK was step eluted with 50 mM HEPES, 1 mM DTT, 500 mM NaCl; 5% glycerol; pH 7.5. PLK was concentrated using a 10 kDa molecular weight cutoff membrane and then loaded onto a Superdex 200 gel filtration (Amersham Pharmacia) column equilibrated in 25 mM HEPES, 1 mM DTT, 500 mM NaCl, 5% glycerol; pH 7.5. Fractions containing PLK were determined by SDS-PAGE. PLK was pooled, aliquoted and stored at −80° C. Samples were quality controlled using mass spectrometry, N-terminal sequencing and amino acid analysis.
B. Enzyme Activity +/− Inhibitors was Determined as Follows:
All measurements were obtained under conditions where signal production increased linearly with time and enzyme. Test compounds were added to white 384-well assay plates (0.1 μL for 10 μL and some 20 μL assays, 1 μL for some 20 μL assays) at variable known concentrations in 100% DMSO. DMSO (1-5% final, as appropriate) and EDTA (65 mM in reaction) were used as controls. Reaction Mix was prepared as follows at 22° C.: • 25 mM HEPES, pH 7.2 • 15 mM MgCl2 • 1 μM ATP • 0.05 μCi/well ^33P-γ ATP (10 Ci/mMol) • 1 μM substrate peptide (Biotin-Ahx-SFNDTLDFD) SEQ ID:No. 2. • 0.15 mg/mL BSA • 1 mM DTT • 2 nM PLK1 kinase domain (added last)
Reaction Mix (10 or 20 μL) was quickly added to each well immediately following addition of enzyme via automated liquid handlers and incubated 1-1.5 h at 22° C. The 20 μL enzymatic reactions were stopped with 50 μL of stop mix (50 mM EDTA, 4.0 mg/mL Streptavidin SPA beads in Standard Dulbecco's PBS (without Mg^2+ and Ca^2+), 50 μM ATP) per well. The 10 μL reactions were stopped with 10 μL of stop mix (50 mM EDTA, 3.0 mg/mL Streptavidin-coupled SPA imaging Beads (“LeadSeeker”) in Standard Dulbecco's PBS (without Mg^2+ and Ca^2+), 50 μM ATP) per well. Plates were sealed with clear plastic seals, spun at 500×g for 1 min or settled overnight, and counted in Packard TopCount for 30 seconds/well (regular SPA) or imaged using a Viewlux imager (LeadSeeker SPA). Signal above background (EDTA controls) was converted to percent Inhibition relative to that obtained in control (DMSO-only) wells.

T1 sequence (P53350 21-346): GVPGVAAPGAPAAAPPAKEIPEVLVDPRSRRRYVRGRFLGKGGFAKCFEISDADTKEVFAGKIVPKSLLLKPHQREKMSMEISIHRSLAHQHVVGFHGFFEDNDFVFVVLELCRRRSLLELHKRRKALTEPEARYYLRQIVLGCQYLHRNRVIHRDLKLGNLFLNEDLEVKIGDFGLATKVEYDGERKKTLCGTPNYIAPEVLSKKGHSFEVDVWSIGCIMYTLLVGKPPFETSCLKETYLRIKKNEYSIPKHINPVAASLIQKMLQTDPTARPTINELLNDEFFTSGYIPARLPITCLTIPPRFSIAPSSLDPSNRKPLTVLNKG

C[C@@H](Oc1cc(-n2cnc3ccccc32)sc1C(N)=O)c1cccc(OCCN2CCOCC2)c1Cl [Example 15, 5-(1H-benzimidazol-1-yl)-3-{[(1R)-1-(2-chloro-3-{[2-(4-morpholinyl)ethyl]oxy}phenyl)ethyl]oxy}-2-thiophenecarboxamide]
IC50: < 0.1 µM

C[C@@H](Oc1cc(-n2cnc3ccccc32)sc1C(N)=O)c1cccc(OCCN2CCNCC2)c1Cl [Example 16, 5-(1H-benzimidazol-1-yl)-3-{[(1R)-1-(2-chloro-3-{[2-(1-piperazinyl)ethyl]oxy}phenyl)ethyl]oxy}-2-thiophenecarboxamide]
IC50: < 0.1 µM

C[C@@H](Oc1cc(-n2cnc3ccccc32)sc1C(N)=O)c1cccc(OCCN2CCN(C)CC2)c1Cl [Example 17, 5-(1H-benzimidazol-1-yl)-3-{[(1R)-1-(2-chloro-3-{[2-(4-methyl-1-piperazinyl)ethyl]oxy}phenyl)ethyl]ocy}-2-thiophenecarboxamide]
IC50: < 0.1 µM

C[C@@H](Oc1cc(-n2cnc3cc(-c4ccc(NC5CCN(C)CC5)nc4)ccc32)sc1C(N)=O)c1cccc(OC2CCN(C)CC2)c1Cl [Example 18, 3-[((1R)-1-{2-chloro-3-[(1-methyl-4-piperidinyl)oxy]phenyl}ethyl)oxy]-5-(5-{6-[(1-methyl-4-piperidinyl)amino]-3-pyridinyl}-1H-benzimidazol-1-yl)-2-thiophenecarboxamide]
IC50: < 0.1 µM

CCN1CCC(Oc2cccc([C@@H](C)Oc3cc(-n4cnc5cc(Cl)ccc54)sc3C(N)=O)c2Cl)CC1 [Example 19, 5-(5-Chloro-1H-benzimidazol-1-yl)-3-[((1R)-1-{2-chloro-3-[(1-ethyl-4-piperidinyl)oxy]phenyl}ethyl)oxy]-2-thiophenecarboxamide]
IC50: < 0.1 µM

C[C@@H](Oc1cc(-n2cnc3cc(Cl)ccc32)sc1C(N)=O)c1cccc(OC2CCN(CCO)CC2)c1Cl [Example 20, 5-(5-Chloro-1H-benzimidazol-1-yl)-3-{[(1R)-1-(2-chloro-3-{[1-(2-hydroxyethyl)-4-piperidinyl]oxy}phenyl)ethyl]oxy}-2-thiophenecarboxamide]
IC50: < 0.1 µM

C[C@@H](Oc1cc(-n2cnc3cc(Cl)ccc32)sc1C(N)=O)c1cccc(OC2CCN(CCF)CC2)c1Cl [Example 21, 5-(5-Chloro-1H-benzimidazol-1-yl)-3-{[(1R)-1-(2-chloro-3-{[1-(2-fluoroethyl)-4-piperidinyl]oxy}phenyl)ethyl]oxy}-2-thiophenecarboxamide]
IC50: < 0.1 µM

C[C@@H](Oc1cc(-n2cnc3cc(Cl)ccc32)sc1C(N)=O)c1cccc(OC2CCN(CCN)CC2)c1Cl [Example 22, 3-{[(1R)-1-(3-{[1-(2-aminoethyl)-4-piperidinyl]oxy}-2-chlorophenyl)ethyl]oxy}-5-(5-chloro-1H-benzimidazol-1-yl)-2-thiophenecarboxamide]
IC50: < 0.1 µM

C[C@@H](Oc1cc(-n2cnc3cc(Cl)ccc32)sc1C(N)=O)c1cccc(OC2CCN(CCS(C)(=O)=O)CC2)c1Cl [Example 23, 5-(5-Chloro-1H-benzimidazol-1-yl)-3-({(1R)-1-[2-chloro-3-({1-[2-(methylsulfonyl)ethyl]-4-piperidinyl}oxy)phenyl]ethyl}oxy)-2-thiophenecarboxamide]
IC50: < 0.1 µM

CC(C)N1CCC(Oc2cccc([C@@H](C)Oc3cc(-n4cnc5cc(Cl)ccc54)sc3C(N)=O)c2Cl)CC1 [Example 24, 5-(5-Chloro-1H-benzimidazol-1-yl)-3-{[(1R)-1-(2-chloro-3-{[1-(1-methylethyl)-4-piperidinyl]oxy}phenyl)ethyl]oxy}-2-thiophenecarboxamide]
IC50: < 0.1 µM

C[C@@H](Oc1cc(-n2cnc3cc(-c4cnn(C)c4)ccc32)sc1C(N)=O)c1cccc(OCCN2CCOCC2)c1Cl [Example 25, 3-{[(1R)-1-(2-chloro-3-{[2-(4-morpholinyl)ethyl]oxy}phenyl)ethyl]oxy}-5-[5-(1-methyl-1H-pyrazol-4-yl)-1H-benzimidazol-1-yl]-2-thiophenecarboxamide]
IC50: < 0.1 µM

C[C@@H](Oc1cc(-n2cnc3cc(Cl)ccc32)sc1C(N)=O)c1cccc(OCCN2CCOCC2)c1Cl [Example 26, 5-(5-Chloro-1H-benzimidazol-1-yl)-3-{[(1R)-1-(2-chloro-3-{[2-(4-morpholinyl)ethyl]oxy}phenyl)ethyl]oxy}-2-thiophenecarboxamide]
IC50: < 0.1 µM

C[C@@H](Oc1cc(-n2cnc3cc(Cl)ccc32)sc1C(N)=O)c1cccc(OC[C@H]2CNCCO2)c1Cl [Example 27, 5-(5-Chloro-1H-benzimidazol-1-yl)-3-{[(1R)-1-(2-chloro-3-{[(2R)-2-morpholinylmethyl]oxy}phenyl)ethyl]oxy}-2-thiophenecarboxamide]
IC50: < 0.1 µM

C[C@@H](Oc1cc(-n2cnc3cc(Cl)ccc32)sc1C(N)=O)c1cccc(OC[C@@H]2CNCCO2)c1Cl [Example 28, 5-(5-Chloro-1H-benzimidazol-1-yl)-3-{[(1R)-1-(2-chloro-3-{[(2S)-2-morpholinylmethyl]oxy}phenyl)ethyl]oxy}-2-thiophenecarboxamide]
IC50: < 0.1 µM

C[C@@H](Oc1cc(-n2cnc3cc(-c4cnn(C)c4)ccc32)sc1C(N)=O)c1cccc(OC2CCN(CCF)CC2)c1Cl [Example 29, 3-{[(1R)-1-(2-Chloro-3-{[1-(2-fluoroethyl)-4-piperidinyl]oxy}phenyl)ethyl]oxy}-5-[5-(1-methyl-1H-pyrazol-4-yl)-1H-benzimidazol-1-yl]-2-thiophenecarboxamide]
IC50: < 0.1 µM

C[C@@H](Oc1cc(-n2cnc3cc(-c4cnn(C)c4)ccc32)sc1C(N)=O)c1cccc(OC2CCN(CCC(F)(F)F)CC2)c1Cl [Example 30, 3-{[(1R)-1-(2-chloro-3-{[1-(3,3,3-trifluoropropyl)-4-piperidinyl]oxy}phenyl)ethyl]oxy}-5-[5-(1-methyl-1H-pyrazol-4-yl)-1H-benzimidazol-1-yl]-2-thiopenecarboxamide]
IC50: < 0.1 µM

C[C@@H](Oc1cc(-n2cnc3cc(-c4cnn(C)c4)ccc32)sc1C(N)=O)c1cccc(OC2CCN(CCS(C)(=O)=O)CC2)c1Cl [Example 31, 3-({(1R)-1-[2-Chloro-3-({1-[2-(methylsulfonyl)ethyl]-4-piperldinyl}oxy)phenyl]ethyl}oxy)-5-[5-(1-methyl-1H-pyrazol-4-yl)-1H-benzimidazol-1-yl]-2-thiophenecarboxamide]
IC50: < 0.1 µM

C[C@@H](Oc1cc(-n2cnc3cc(Cl)ccc32)sc1C(N)=O)c1ccc(F)c(OC2CCN(C)CC2)c1Cl [Example 32, 5-(5-Chloro-1H-benzimidazol-1-yl)-3-[((1R)-1-{2-chloro-4-fluoro-3-[(1-methyl-4-piperidinyl)oxy]phenyl}ethyl)oxy]-2-thiophenecarboxamide]
IC50: < 0.1 µM

C[C@@H](Oc1cc(-n2cnc3cc(-c4cnn(C)c4)ccc32)sc1C(N)=O)c1ccc(F)c(OC2CCNCC2)c1Cl [Example 33, 3-({(1R)-1-[2-Chloro-4-fluoro-3-(4-piperidinyloxy)phenyl]ethyl}oxy)-5-[5-(1-methyl-1H-pyrazol-4-yl)-1H-benzimidazol-1-yl]-2-thiophenecarboxamide]
IC50: < 0.1 µM

C[C@@H](Oc1cc(-n2cnc3cc(-c4cnn(C)c4)ccc32)sc1C(N)=O)c1ccc(F)c(OC2CCN(C)CC2)c1Cl [Example 34, 3-[((1R)-1-{2-Chloro-4-fluoro-3-[(1-methyl-4-piperidinyl)oxy]phenyl}ethyl)oxy]-5-[5-(1-methyl-1H-pyrazol-4-yl)-1H-benzimidazol-1-yl]-2-thiophenecarboxamide trifluoroacetate]
IC50: < 0.1 µM
